Source: the supplement of paper PMC5908809

Key:
[1] = test system: normal NK cells expanded with K562-aAPC; experiment: percent inhibition of viability; higher = more inhibition; conditions: 72 h, IL-2 2.5 ng/mL
Method: (§1)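 Drug sensitivity and resistance testing on K562-aAPC-expanded normal NK cells: 5 concentrations (10-fold steps over a 10,000-fold range), 72 h at 37 °C, viability by CellTiter-Glo normalised to DMSO and benzethonium chloride controls; DSS from the fitted curve.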

DERL-7 (IL-2 2.5 ng/mL) [2] = experiment: as above; conditions: 72 h
IMC-1 (IL-2 20 ng/mL) [3] = experiment: as above; conditions: 72 h
KAI3 (IL-2 2.5 ng/mL) [4] = experiment: as above; conditions: 72 h
KHYG-1 (IL-2 2.5 ng/mL) [5] = experiment: as above; conditions: 72 h
NK-92 (IL-2 2.5 ng/mL) [6] = experiment: as above; conditions: 72 h
NK-YS (IL-2 2.5 ng/mL) [7] = experiment: as above; conditions: 72 h
NKL (IL-2 2.5 ng/mL) [8] = experiment: as above; conditions: 72 h
SNK-6 (IL-2 2.5 ng/mL) [9] = experiment: as above; conditions: 72 h
YT (IL-2 2.5 ng/mL) [10] = experiment: as above; conditions: 72 h
[11] = test system: normal primary NK cells, pool 1 (3 donors) (IL-2 2.5 ng/mL); experiment: as above; conditions: 72 h
[12] = test system: normal primary NK cells, pool 1 (3 donors), resting (IL-2 0 ng/mL); experiment: as above; conditions: 72 h
[13] = test system: normal primary NK cells, pool 2 (3 donors) (IL-2 2.5 ng/mL); experiment: as above; conditions: 72 h
[14] = test system: normal primary NK cells, pool 3 (3 donors) (IL-2 2.5 ng/mL); experiment: as above; conditions: 72 h
[15] = test system: normal NK cells expanded with K562-aAPC; experiment: drug sensitivity score (DSS) (DSS units); higher = more sensitive; extreme values may be limits of the assay; conditions: 72 h; IL-2 2.5 ng/mL
Method: as §1

DERL-7 (IL-2 2.5 ng/mL) [16] = experiment: as above; conditions: 72 h
IMC-1 (IL-2 20 ng/mL) [17] = experiment: as above; conditions: 72 h
KAI3 (IL-2 2.5 ng/mL) [18] = experiment: as above; conditions: 72 h
KHYG-1 (IL-2 2.5 ng/mL) [19] = experiment: as above; conditions: 72 h
NK-92 (IL-2 2.5 ng/mL) [20] = experiment: as above; conditions: 72 h
NK-YS (IL-2 2.5 ng/mL) [21] = experiment: as above; conditions: 72 h
NKL (IL-2 2.5 ng/mL) [22] = experiment: as above; conditions: 72 h
SNK-6 (IL-2 2.5 ng/mL) [23] = experiment: as above; conditions: 72 h
YT (IL-2 2.5 ng/mL) [24] = experiment: as above; conditions: 72 h
[25] = test system: normal primary NK cells, pool 1 (3 donors) (IL-2 2.5 ng/mL); experiment: as above; conditions: 72 h
[26] = test system: normal primary NK cells, pool 1 (3 donors), resting (IL-2 0 ng/mL); experiment: as above; conditions: 72 h
[27] = test system: normal primary NK cells, pool 2 (3 donors) (IL-2 2.5 ng/mL); experiment: as above; conditions: 72 h
[28] = test system: normal primary NK cells, pool 3 (3 donors) (IL-2 2.5 ng/mL); experiment: as above; conditions: 72 h

C[C@H]1C[C@@H]2[C@H]([C@@H](O)C[C@@]3(C)[C@H]2CC[C@]3(O)C(=O)CO)[C@@]2(C)C=CC(=O)C=C12 [Methylprednisolone] (max concentration tested 10000 nM)
percent inhibition of viability [%]
Conditions | 1 nM | 10 nM | 100 nM | 1000 nM | 10000 nM
DERL-7 (IL-2 2.5 ng/mL) [2] | -1.31 | 19 | 94 | 100 | 101
IMC-1 (IL-2 20 ng/mL) [3] | -4.86 | -2.72 | -15.2 | -4.89 | -2.93
KAI3 (IL-2 2.5 ng/mL) [4] | -8.86 | -6.63 | -0.28 | 7.95 | 30.7
KHYG-1 (IL-2 2.5 ng/mL) [5] | -4.65 | 5.05 | 18.2 | 46 | 55.1
NK-92 (IL-2 2.5 ng/mL) [6] | -14.6 | -20.1 | -27.4 | -10.6 | 3.24
NK-YS (IL-2 2.5 ng/mL) [7] | -6.22 | -4.6 | 0.39 | 6.37 | 16.5
NKL (IL-2 2.5 ng/mL) [8] | 4.02 | 31.1 | 57 | 63.6 | 67.6
SNK-6 (IL-2 2.5 ng/mL) [9] | 7.96 | -13.3 | -4.6 | -6.43 | 15.4
YT (IL-2 2.5 ng/mL) [10] | -5.71 | 10.2 | 19.4 | 43.3 | 53.1
[1] | -4.84 | 16.6 | 51.6 | 67.2 | 74.4
[11] | 6.03 | 24 | 56.2 | 75.3 | 81.7
[12] | -1.18 | 47.6 | 75.4 | 84.2 | 87.2
[13] | -6.66 | 20.1 | 52.2 | 69.9 | 76.8
[14] | -7.17 | 8.16 | 33.7 | 46.2 | 58.4

Conditions | drug sensitivity score
DERL-7 (IL-2 2.5 ng/mL) [16] | 32.1
IMC-1 (IL-2 20 ng/mL) [17] | 0
KAI3 (IL-2 2.5 ng/mL) [18] | 2.54
KHYG-1 (IL-2 2.5 ng/mL) [19] | 10.5
NK-92 (IL-2 2.5 ng/mL) [20] | 0
NK-YS (IL-2 2.5 ng/mL) [21] | 0.89
NKL (IL-2 2.5 ng/mL) [22] | 23
SNK-6 (IL-2 2.5 ng/mL) [23] | 0.13
YT (IL-2 2.5 ng/mL) [24] | 10.3
[15] | 20.6
[25] | 23.3
[26] | 31.7
[27] | 21.3
[28] | 13.5

FC(F)(F)c1ccc(/C=C/c2nc(COc3ccc(CCCCn4ccnn4)cc3)co2)cc1 [Mubritinib] (max concentration tested 1000 nM)
percent inhibition of viability [%]
Conditions | 0.1 nM | 1 nM | 10 nM | 100 nM | 1000 nM
DERL-7 (IL-2 2.5 ng/mL) [2] | 1.75 | 0.44 | 5.74 | 24.8 | 27
IMC-1 (IL-2 20 ng/mL) [3] | -1.73 | -4.86 | 37.2 | 86.6 | 31.2
KAI3 (IL-2 2.5 ng/mL) [4] | 3.33 | -9.68 | -0.43 | 26.5 | 45.4
KHYG-1 (IL-2 2.5 ng/mL) [5] | -2.15 | -7.85 | 17 | 42.5 | 66.5
NK-92 (IL-2 2.5 ng/mL) [6] | -8.31 | -12.6 | 7.62 | 30.8 | 42.3
NK-YS (IL-2 2.5 ng/mL) [7] | -3.84 | -4.99 | 8.6 | 64 | 81.2
NKL (IL-2 2.5 ng/mL) [8] | -16.4 | -8.04 | 7.63 | 38.2 | 57.6
SNK-6 (IL-2 2.5 ng/mL) [9] | -13.7 | -12.2 | 4.91 | 4.95 | 7.75
YT (IL-2 2.5 ng/mL) [10] | -2.71 | -3.53 | 24 | 44.2 | 39.6
[1] | -6.01 | -7.06 | -7.66 | 9.52 | 14.1
[11] | -7.65 | 0.13 | 21.1 | 48.2 | 50.2
[12] | 10 | 1.44 | 28.5 | 61 | 64.8
[13] | -5.29 | -7.28 | 16.6 | 27.6 | 34.2
[14] | -9.77 | -2.9 | 15.1 | 21.5 | 34

Conditions | drug sensitivity score
DERL-7 (IL-2 2.5 ng/mL) [16] | 4.52
IMC-1 (IL-2 20 ng/mL) [17] | 20.6
KAI3 (IL-2 2.5 ng/mL) [18] | 5.59
KHYG-1 (IL-2 2.5 ng/mL) [19] | 9.82
NK-92 (IL-2 2.5 ng/mL) [20] | 6.23
NK-YS (IL-2 2.5 ng/mL) [21] | 13
NKL (IL-2 2.5 ng/mL) [22] | 8.04
SNK-6 (IL-2 2.5 ng/mL) [23] | 0
YT (IL-2 2.5 ng/mL) [24] | 11
[15] | 0.75
[25] | 11.5
[26] | 14.7
[27] | 7.39
[28] | 4.94
